Laboratory results as given in the supplement of paper PMC10307832.

Experiments:
Experiment in all cases: relative viability (nuclei count vs DMSO), 5 days (fraction); higher = more cells survive
Sulindac + Alpelisib = compound: CC1=C(CC(=O)O)c2cc(F)ccc2/C1=C\c1ccc([S+](C)[O-])cc1 [Sulindac] + Cc1nc(NC(=O)N2CCC[C@H]2C(N)=O)sc1-c1ccnc(C(C)(C)C(F)(F)F)c1 [Alpelisib] (partner 2 µM)
Method in brief: (§1)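 Relative viability divides the nuclei count in treated wells by that in vehicle wells. Lung cancer cell lines were seeded in 1536-well plates, dosed by pin tool the next day, and fixed and stained after 5 days in one step with final 0.05% Triton X-100, 1% formaldehyde and 1 ug/ml Hoechst. Dosing was a single drug or a fixed anchor-drug dose plus five library-drug doses (not always all listed) in √10 steps, and values are medians of duplicate plates imaged at 4×.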

5-Fluorouracil + AZD7762 = compound: O=c1[nH]cc(F)c(=O)[nH]1 [5-Fluorouracil] + NC(=O)Nc1cc(-c2cccc(F)c2)sc1C(=O)N[C@H]1CCCNC1 [AZD7762] (partner 0.2 µM)
Method in brief: as §1

[1] = compound: CN[C@@H]1C[C@H]2O[C@@](C)([C@@H]1OC)n1c3ccccc3c3c4c(c5c6ccccc6n2c5c31)C(=O)NC4 [Staurosporine] + Cc1cc(Nc2cc(N3CCN(C)CC3)nc(Sc3ccc(NC(=O)C4CC4)cc3)n2)n[nH]1 [Tozasertib] (partner 0.1 µM)
Method in brief: as §1

[2] = compound: O=c1[nH]cc(F)c(=O)[nH]1 [5-Fluorouracil] + CC1(C)CCC(c2ccc(Cl)cc2)=C(CN2CCN(c3ccc(C(=O)NS(=O)(=O)c4ccc(N[C@H](CCN5CCOCC5)CSc5ccccc5)c(S(=O)(=O)C(F)(F)F)c4)cc3)CC2)C1 [Navitoclax] (partner 0.5 µM)
Method in brief: as §1

Cell Line | relative viability (Sulindac + Alpelisib; first compound 0.08 µM) | relative viability (Sulindac + Alpelisib; first compound 0.253 µM) | relative viability (Sulindac + Alpelisib; first compound 0.8 µM) | relative viability (Sulindac + Alpelisib; first compound 2.53 µM) | relative viability (Sulindac + Alpelisib; first compound 8 µM) | relative viability (5-Fluorouracil + AZD7762; first compound 0.02 µM) | relative viability (5-Fluorouracil + AZD7762; first compound 0.2 µM) | relative viability (5-Fluorouracil + AZD7762; first compound 0.6325 µM) | relative viability (5-Fluorouracil + AZD7762; first compound 2 µM) | relative viability ([1]; first compound 0.005 µM) | relative viability ([1]; first compound 0.01581 µM) | relative viability ([1]; first compound 0.05 µM) | relative viability ([1]; first compound 0.1581 µM) | relative viability ([1]; first compound 0.5 µM) | relative viability ([2]; first compound 0.02 µM) | relative viability ([2]; first compound 0.2 µM) | relative viability ([2]; first compound 0.6325 µM) | relative viability ([2]; first compound 2 µM)
NCI-H322M | 0.644 | 0.777 | 0.652 | 0.848 | 0.928 | 0.57 | 0.627 | 0.608 | 0.53 | 0.318 | 0.318 | 0.287 | 0.334 | 0.288 | 1.29 | 1.07 | 0.853 | 0.693
HOP-62 | 1.15 | 0.994 | 0.842 | 0.963 | 1.21 | 0.636 | 1.06 | 0.522 | 0.473 | 0.349 | 0.237 | 0.114 | 0.128 | 0.103 | 1.09 | 1.13 | 1.01 | 0.805
HCC-366 | 0.527 | 0.471 | 0.407 | 0.527 | 0.622 | 0.354 | 0.308 | 0.119 | 0.0755 | 0.144 | – | 0.0425 | 0.0279 | 0.0464 | 1.19 | 0.992 | 0.545 | 0.125
NCI-H2405 | 0.725 | 0.794 | 0.713 | 0.796 | 0.917 | 0.813 | 0.86 | 0.684 | 0.494 | 0.586 | 0.256 | 0.0844 | 0.0771 | 0.0789 | 0.93 | 0.793 | 0.858 | 0.59
LXF-289 | 1.1 | 1.05 | 1.02 | 1.13 | 1.06 | 1.1 | 0.495 | 0.342 | 0.313 | 0.0996 | 0.072 | 0.0495 | 0.0532 | 0.0507 | 0.881 | 0.625 | 0.387 | 0.283
NCI-H1793 | 0.744 | 0.78 | 0.587 | 0.857 | 0.804 | 0.344 | 0.488 | 0.409 | 0.332 | 0.335 | – | 0.299 | 0.182 | 0.186 | 0.385 | 0.53 | 0.403 | 0.289
NCI-H1734 | 0.712 | 0.696 | 0.64 | 0.693 | 0.805 | 0.539 | 0.613 | 0.54 | 0.314 | 0.314 | 0.206 | 0.191 | 0.132 | 0.0956 | 0.795 | 0.932 | 0.765 | 0.428
LU99A | 0.468 | 0.564 | 0.455 | 0.498 | 0.596 | 0.364 | 0.458 | 0.368 | 0.177 | 0.266 | 0.178 | 0.185 | 0.225 | 0.138 | 0.755 | 0.795 | 0.686 | 0.563
